Measurements: patent publication US7897637B2, “Methods of using flavonoids to enhance memory” (The Salk Institute for Biological Studies, priority 2006, dated 2011)
“Also recorded” adds a separate entry of the source.

Experiments:
[1] = test system: protein kinase A; conditions: PC12 cells; Sagara et al. 2004; cited from earlier work
[2] = test system: ERK1 (p44); test: ERK1 (p44) phosphorylation in hippocampal slices (immunoblotting, densitometry); type: cell-based, rat; conditions: for p44 phosphoprotein signal normalized to total protein: 1 μM
Procedure: (§1) Western blots panels A and B) of hippocampal slices treated with (A) 1 μM fisetin or (B) pretreated for 30 minutes with either 50 μM PD98059 (PD) or 10 μM U0126 (U) before the addition of 1 μM fisetin for 5 minutes, which blots were probed with the indicated antibodies.
(§2) Hippocampal slices in artificial cerebral spinal fluid (ACSF) were treated with either 1 μM fisetin for 5-20 minutes or pretreated for 30 minutes with either 50 μM PD98059 (PD) or 10 μM U0126 (J) before the addition of 1 μM fisetin for 5 minutes. Equal amounts of protein were analyzed by SDS-PAGE and immunoblotting with antibodies to phospho-ERK and phospho-CRFB along with antibodies to the unphosphorylated forms of the proteins. The average phosphoprotein signal from the blots was quantified by densitometry and normalized to total protein was plotted±S.D.

[3] = test system: PC12 cells; conditions: at 10 μM; Sagara et al. 2004; cited from earlier work
[4] = test system: ERK2 (p42); test: ERK2 (p42) phosphorylation in hippocampal slices (immunoblotting, densitometry); type: cell-based, rat; conditions: for p42 phosphoprotein signal normalized to total protein: 1 μM
Procedure: as §1, §2

[5] = test system: Sprague-Drawley rats; test: Morris water maze (spatial learning and memory); type: in vivo; conditions: 25 mg/kg by gavage
Procedure: This example describes use of the Morris water maze (MWM) to examine hippocampus-dependent spatial learning and memory in rats. The standard test consists of two parts; a training phase, which measures the ability of the animals to learn where a hidden platform is located within an opaque pool of water and a probe test, which is performed 24 hours after the last training trial and measures the ability of the animals to remember the location of the platform (Vorhees & Williams, Nature Protocols 1.848-58, 2(006))
To test whether oral administration of fisetin could increase spatial learning and/or memory, young male Sprague-Drawley rats (8 weeks old) were administered fisetin by gavage (25 mg/kg) beginning one day before the training phase and continuing throughout the 8 days of training. The rats were given four trials a day for 8 days. Retention of the spatial training was assessed 24 hours after the last training trial. The probe trial consisted of a 60 second free swim in the pool without the platform. Both the training and probe trials were monitored by a video camera mounted above the pool and all data were analyzed by software provided with the video-tracking program.

[6] = test system: C57BL/6 mice; test: MPTP-induced striatal dopamine loss; type: in vivo
Procedure: C57BL/6 mice from about 11 to 12 week old (20-25 g) were injected with a single dose of […] 1-methyl-4-phenyl-1,2,3,6-tetrahydropyridine (MPTP). MPTP is toxic to dopaminergic neurons in the substantia nigra, and produces many of the symptoms of Parkinson's disease. MPTP-treated mice have long been used as a model of human Parkinson's disease (see, e.g., reviews by Smeyne and Jackson-Lewis, Brain Bes. Mol. Brain Res., 134(1):57-66, 2005; Tetrud and Langston, Acta Neurol. Scand. Suppl., 126:35-40, 1989). After 8 days, the animals were euthanized and the striata dissected and assayed for dopamine content by HPLC combined with electrochemical detection, as previously described (Irwin e/al., Brain Res., 572:224-231, 1992). One group of untreated mice (n=4) and one group of MPTP-treated mice (n=4) received orally administered fisetin (25 mg/kg) beginning one day before treatment groups received MPTP and continuing for the same time period as MPTP treatment in treatment groups. Mice untreated with MPTP or fisetin (control) and mice treated with MPTP alone were also examined.

[7] = test system: CREB; test: CREB phosphorylation in hippocampal slices (immunoblotting, densitometry); type: cell-based, rat; conditions: for CREB phosphoprotein signal normalized to total protein: 1 μM
Procedure: as §1, §2

[8] = test system: ERK; test: ERK activation in primary cortical neuron cultures (immunoblotting); type: cell-based, rat; conditions: 10 μM, 30 minutes to 6 hours
Procedure: (§3) The average phosphoprotein signal from the blots was quantified by densitometry and normalized to total protein,
(§4) Five (5) day old cortical cultures were next pretreated with 50 μM of the MEK inhibitor, PD98059, before the addition of 10 μM fisetin for 4 hours.
(§5) Primary cultures of rat cortical neurons were prepared as previously described by Li et al. (Neuron, 19:453-63, 1997, herein incorporated by reference as to the method). Analysis of ERK and CREB phosphorylation was performed using SDS-polyacrylamide gel electrophoresis and immunoblotting as previously described by Sagara et al. (J. Neurochem., 90:1144-1155, 2004) using equal amounts of protein from 5 day old cortical cultures. Blots were scanned and quantified using NIH Image. Results were analyzed using an unpaired Student's t-test.

[9] = test system: CREB; test: CREB activation in primary cortical neuron cultures (immunoblotting); type: cell-based, rat; conditions: 10 μM, 30 minutes to 6 hours
Procedure: as §3, §4, §5

[10] = test system: cAMP; test: cAMP levels in hippocampal slices (Scintillation Proximity Assay); type: cell-based
Procedure: Hippocampal slices were treated with fisetin using the conditions where maximal stimulation of CREB phosphorylation and facilitation of LTP were observed. Briefly, hippocampal slices in ACSF were treated with 1 μM fisetin for 5 minutes (fisetin) or 3 μM rolipram for 30 minutes (rolipram) and then either immediately frozen or treated with […] forskolin for an additional 15 minutes (rolipram+forskolin; fisetin+forskolin) prior to freezing. Additional slices were treated only with 5 μM forskolin for 15 minutes (forskolin). Forskolin, an activator of adenylyl cyclase, and rolipram were used as positive controls. The levels of cAMP in the slices were measured using a Scintillation Proximity Assay and presented as pmole/mg protein±S.D.

[11] = hippocampal slices, 1 μM fisetin

SMILES: O=c1c(O)c(-c2ccc(O)c(O)c2)oc2cc(O)ccc12 [fisetin, 3,3′,4′,7-tetrahydroxyflavone]
- activation of the cAMP target protein kinase A [1]: does not result in the activation
- p44 phosphoprotein signal normalized to total protein ([2]; 5 min): 1.98±0.16
- p44 phosphoprotein signal normalized to total protein ([2]; 10 min): 1.48±0.02
- p44 phosphoprotein signal normalized to total protein ([2]; 20 min): 1.30±0.09
- increase in ERK 1 phosphorylation [2, 11]: 2 fold
- differentiation of the cells induced [3]: 75-80%
- p42 phosphoprotein signal normalized to total protein ([4]; 5 min): 1.68±0.06
- p42 phosphoprotein signal normalized to total protein ([4]; 10 min): 1.31±0.05
- p42 phosphoprotein signal normalized to total protein ([4]; 20 min): 1.42±0.03
- increase in ERK2 phosphorylation [4, 11]: 2 fold
- effect on swim speed or thigmotaxis [5]: no significant effect
- ability of the rats to learn the location of the hidden platform ([5]; 8 days of training): no clear effect
- probe test: time in the quadrant where the platform had been located (spatial memory) ([5]; 24 hours after last training trial, vs vehicle): significantly more time; also recorded: enhances spatial memory
- striatal dopamine concentration ([6]; MPTP and fisetin 25 mg/kg oral): at least as high as control
- striatal dopamine concentration ([6]; fisetin alone 25 mg/kg oral, no MPTP): highest concentrations of striatal dopamine
- CREB phosphoprotein signal normalized to total protein ([7]; 5 min): 2.87±0.56
- CREB phosphoprotein signal normalized to total protein ([7]; 10 min): 2.72±0.12
- CREB phosphoprotein signal normalized to total protein ([7]; 20 min): 2.55±0.39
- increase in CREB phosphorylation ([7]; hippocampal slices, fisetin): ~3 fold
- ERK activation [8]: induced ERK activation
- CREB activation [9]: enhanced CREB activation
- effect on cAMP levels by itself ([10]; 1 μM fisetin 5 minutes, 3 μM rolipram 30 minutes): no effect; also recorded: does not increase cAMP levels
- potentiation of the effect of forskolin on cAMP levels ([10]; then 5 μM forskolin for 15 minutes): nor did it potentiate
